Data as given in ChEMBL document CHEMBL1201862, “PubChem BioAssay data set” (2004).
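96-well plates; 48 h exposure; 5 concentrations. Endpoints by linear interpolation between flanking doses. Not reached: highest tested concentration assigned. GI50 is the concentration that inhibits growth by half.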 The source made the active and inactive calls. No stated cut-off is given here; in the data, active = GI50 up to about 1.1 µM and inactive = higher.

How the values were obtained:
Experiment in all cases: growth of human tumour cells (NCI), 48 h
A498 = test system: A498
DLD-1 = test system: DLD-1
DMS-273 = test system: DMS-273
HCT-116 = test system: HCT-116
HOP-18 = test system: HOP-18
HOP-62 = test system: HOP-62
M19-MEL = test system: M19-MEL
MCF7 = test system: MCF7
NCI-H522 = test system: NCI-H522
NCI/ADR-RES = test system: NCI/ADR-RES
RPMI-8226 = test system: RPMI-8226
SF-539 = test system: SF-539
SK-OV-3 = test system: SK-OV-3
SNB-78 = test system: SNB-78
XF498 = test system: XF498
SR = test system: SR
TK-10 = test system: TK-10
BT-549 = test system: BT-549
MDA-MB-231 = test system: MDA-MB-231
MDA-N = test system: MDA-N

## Cc1c2cc[n+](C)cc2c(COC2OC(CO)C(O)C2O)c2c3ccccc3n(C)c12 (stereo unspecified)
A498
  GI50: > 100 µM (inactive)
DLD-1
  GI50: > 100 µM (inactive)
DMS-273
  GI50: > 89.9 µM (inactive)
HCT-116
  GI50: > 100 µM (inactive)
HOP-18
  GI50: 27.5 µM (inactive)
HOP-62
  GI50: 58.6 µM (inactive)
M19-MEL
  GI50: 65.5 µM (inactive)
MCF7
  GI50: > 100 µM (inactive)
NCI-H522
  GI50: 63.1 µM (inactive)
NCI/ADR-RES
  GI50: > 97.7 µM (inactive)
RPMI-8226
  GI50: 99.5 µM (inactive)
SF-539
  GI50: 90.4 µM (inactive)
SK-OV-3
  GI50: > 88.7 µM (inactive)
SNB-78
  GI50: 83.9 µM (inactive)
XF498
  GI50: 50.7 µM (inactive)

## C=CNC(=S)n1nc(-c2ccccc2NC(=O)C(F)(F)F)c(=O)n(C(=S)NC=C)c1=S
DLD-1
  GI50: 16.7 µM (inactive)
DMS-273
  GI50: 26.8 µM (inactive)
HCT-116
  GI50: > 100 µM (inactive)
HOP-62
  GI50: 29.6 µM (inactive)
M19-MEL
  GI50: 31.8 µM (inactive)
NCI-H522
  GI50: 11.2 µM (inactive)
SK-OV-3
  GI50: 30.3 µM (inactive)
SNB-78
  GI50: 51.1 µM (inactive)
SR
  GI50: 16.4 µM (inactive)
TK-10
  GI50: > 100 µM (inactive)
XF498
  GI50: 30.2 µM (inactive)

## Cc1c(-c2cc3n(n2)C(c2cccs2)C(C#N)=C(c2ccccc2)N3)c(=O)n(-c2ccccc2)n1C (stereo unspecified)
A498
  GI50: 82.8 µM (inactive)
DLD-1
  GI50: > 100 µM (inactive)
DMS-273
  GI50: > 91.6 µM (inactive)
HCT-116
  GI50: > 75.7 µM (inactive)
HOP-18
  GI50: > 100 µM (inactive)
HOP-62
  GI50: > 100 µM (inactive)
M19-MEL
  GI50: > 100 µM (inactive)
MCF7
  GI50: > 86.5 µM (inactive)
NCI-H522
  GI50: 63.2 µM (inactive)
NCI/ADR-RES
  GI50: > 86.3 µM (inactive)
SF-539
  GI50: > 100 µM (inactive)
SK-OV-3
  GI50: > 100 µM (inactive)
SNB-78
  GI50: > 100 µM (inactive)
XF498
  GI50: > 79.4 µM (inactive)

## CNC(=O)OCc1nc(SC)n(C)c1CO
A498
  GI50: > 100 µM (inactive)
DLD-1
  GI50: > 100 µM (inactive)
DMS-273
  GI50: > 100 µM (inactive)
HCT-116
  GI50: > 100 µM (inactive)
HOP-18
  GI50: > 79.3 µM (inactive)
HOP-62
  GI50: > 100 µM (inactive)
M19-MEL
  GI50: > 100 µM (inactive)
MCF7
  GI50: > 100 µM (inactive)
NCI-H522
  GI50: > 100 µM (inactive)
NCI/ADR-RES
  GI50: > 100 µM (inactive)
RPMI-8226
  GI50: > 100 µM (inactive)
SF-539
  GI50: > 100 µM (inactive)
SK-OV-3
  GI50: > 100 µM (inactive)
SNB-78
  GI50: > 100 µM (inactive)
XF498
  GI50: > 100 µM (inactive)

## O=C1CC2(CCC(O)(c3ccccc3)C(C(=O)c3ccccc3)C2)C(=O)c2ccccc2N1 (stereo unspecified)
A498
  GI50: > 100 µM (inactive)
BT-549
  GI50: > 100 µM (inactive)
HCT-116
  GI50: > 100 µM (inactive)
HOP-62
  GI50: > 100 µM (inactive)
MCF7
  GI50: > 100 µM (inactive)
MDA-MB-231
  GI50: > 100 µM (inactive)
MDA-N
  GI50: > 100 µM (inactive)
NCI/ADR-RES
  GI50: > 100 µM (inactive)
SF-539
  GI50: > 100 µM (inactive)
SK-OV-3
  GI50: > 100 µM (inactive)
SR
  GI50: > 100 µM (inactive)
TK-10
  GI50: > 100 µM (inactive)

## CNc1cc2c(c3ccccc13)C(CCl)CN2C(=O)c1cc2cc(OC)c(OC)c(OC)c2[nH]1 (stereo unspecified)
A498
  GI50: 0.00261 µM (active)
BT-549
  GI50: 0.00881 µM (active)
HCT-116
  GI50: 0.00106 µM (active)
HOP-62
  GI50: 0.00281 µM (active)
MCF7
  GI50: 0.000822 µM (active)
MDA-MB-231
  GI50: 0.0074 µM (active)
MDA-N
  GI50: 0.00243 µM (active)
NCI-H522
  GI50: < 0.01 µM (active)
NCI/ADR-RES
  GI50: 0.000991 µM (active)
RPMI-8226
  GI50: 0.00455 µM (active)
SF-539
  GI50: 0.00196 µM (active)
SK-OV-3
  GI50: 0.0116 µM (active)
SR
  GI50: 0.000275 µM (active)
TK-10
  GI50: 0.00218 µM (active)

## c1ccc2c(c1)c1ccccc1n2Cn1c2ccccc2c2ccccc21
A498
  GI50: > 100 µM (inactive)
BT-549
  GI50: > 100 µM (inactive)
HOP-62
  GI50: > 100 µM (inactive)
MDA-MB-231
  GI50: > 100 µM (inactive)
MDA-N
  GI50: > 100 µM (inactive)
NCI-H522
  GI50: > 100 µM (inactive)
NCI/ADR-RES
  GI50: > 100 µM (inactive)
RPMI-8226
  GI50: > 100 µM (inactive)
SR
  GI50: > 100 µM (inactive)
TK-10
  GI50: > 100 µM (inactive)

## C/C(=N\NC(=O)c1ccncc1)c1cccc(C(F)(F)F)c1
BT-549
  GI50: > 10 µM (inactive)
HOP-62
  GI50: > 10 µM (inactive)
MCF7
  GI50: 6.9 µM (inactive)
MDA-MB-231
  GI50: > 10 µM (inactive)
MDA-N
  GI50: > 10 µM (inactive)
NCI/ADR-RES
  GI50: > 10 µM (inactive)
RPMI-8226
  GI50: > 10 µM (inactive)
SF-539
  GI50: > 10 µM (inactive)
SK-OV-3
  GI50: > 10 µM (inactive)
SR
  GI50: > 10 µM (inactive)
TK-10
  GI50: > 10 µM (inactive)

## COc1ccc(C2c3cc4c(cc3OC(Nc3ccccc3)C2C)OCO4)cc1 (stereo unspecified)
A498
  GI50: 58.6 µM (inactive)
BT-549
  GI50: 68.1 µM (inactive)
HCT-116
  GI50: 12.7 µM (inactive)
HOP-62
  GI50: > 100 µM (inactive)
MCF7
  GI50: 23.6 µM (inactive)
MDA-MB-231
  GI50: > 100 µM (inactive)
MDA-N
  GI50: > 100 µM (inactive)
NCI-H522
  GI50: 12.1 µM (inactive)
RPMI-8226
  GI50: 26 µM (inactive)
SF-539
  GI50: > 100 µM (inactive)
SK-OV-3
  GI50: > 100 µM (inactive)
SR
  GI50: 2.42 µM (inactive)
TK-10
  GI50: 91.6 µM (inactive)

## CCOC(=O)/C=C(\C)c1ccc(C)cc1C
A498
  GI50: > 100 µM (inactive)
DLD-1
  GI50: 15.7 µM (inactive)
DMS-273
  GI50: > 100 µM (inactive)
HCT-116
  GI50: > 100 µM (inactive)
HOP-18
  GI50: 45 µM (inactive)
RPMI-8226
  GI50: 7.28 µM (inactive)
SF-539
  GI50: > 100 µM (inactive)
SNB-78
  GI50: 38.1 µM (inactive)
SR
  GI50: 4.46 µM (inactive)
TK-10
  GI50: 33.8 µM (inactive)
XF498
  GI50: 23.4 µM (inactive)

## CCc1cc2c(oc3cc4ccccc4cc32)c(=O)[nH]1
BT-549
  GI50: > 10 µM (inactive)
HCT-116
  GI50: > 10 µM (inactive)
MDA-MB-231
  GI50: > 10 µM (inactive)
MDA-N
  GI50: > 10 µM (inactive)
NCI-H522
  GI50: > 10 µM (inactive)
NCI/ADR-RES
  GI50: > 10 µM (inactive)
SF-539
  GI50: > 10 µM (inactive)
SR
  GI50: > 10 µM (inactive)
TK-10
  GI50: > 10 µM (inactive)

## N=C(N)c1csc([C@@H]2O[C@H](CO)[C@@H](O)[C@H]2O)n1
DLD-1
  GI50: > 100 µM (inactive)
DMS-273
  GI50: > 100 µM (inactive)
HCT-116
  GI50: > 100 µM (inactive)
HOP-18
  GI50: 59.7 µM (inactive)
M19-MEL
  GI50: > 100 µM (inactive)
RPMI-8226
  GI50: > 100 µM (inactive)
SF-539
  GI50: > 100 µM (inactive)
SK-OV-3
  GI50: > 100 µM (inactive)
SNB-78
  GI50: > 100 µM (inactive)
SR
  GI50: > 100 µM (inactive)
TK-10
  GI50: > 100 µM (inactive)
XF498
  GI50: > 100 µM (inactive)

## CCOC(=O)NC(=O)c1cn(C2CCCCC2)c(=O)n(C)c1=O
A498
  GI50: > 100 µM (inactive)
DLD-1
  GI50: > 100 µM (inactive)
DMS-273
  GI50: > 100 µM (inactive)
HCT-116
  GI50: > 100 µM (inactive)
HOP-18
  GI50: > 100 µM (inactive)
HOP-62
  GI50: > 100 µM (inactive)
M19-MEL
  GI50: > 100 µM (inactive)
NCI-H522
  GI50: > 100 µM (inactive)
RPMI-8226
  GI50: > 100 µM (inactive)
SF-539
  GI50: > 100 µM (inactive)
SK-OV-3
  GI50: > 100 µM (inactive)
SNB-78
  GI50: > 100 µM (inactive)
SR
  GI50: > 100 µM (inactive)
TK-10
  GI50: > 100 µM (inactive)
